The values below come from US9296694B2, “Azacyclic compounds” (ACADIA Pharmaceuticals Inc., priority 2000, dated 2016).

Common to all, as to test: R-SAT selectivity profile of 26HCH16D
Holding throughout (type): cell-based

In one assay the target is T1, 5HT1A (Homo sapiens, UniProt P08908).
T1 construct: expressed in transfected cells; host or cells: NIH3T3, pSI vector
T1 sequence (P08908 1-422): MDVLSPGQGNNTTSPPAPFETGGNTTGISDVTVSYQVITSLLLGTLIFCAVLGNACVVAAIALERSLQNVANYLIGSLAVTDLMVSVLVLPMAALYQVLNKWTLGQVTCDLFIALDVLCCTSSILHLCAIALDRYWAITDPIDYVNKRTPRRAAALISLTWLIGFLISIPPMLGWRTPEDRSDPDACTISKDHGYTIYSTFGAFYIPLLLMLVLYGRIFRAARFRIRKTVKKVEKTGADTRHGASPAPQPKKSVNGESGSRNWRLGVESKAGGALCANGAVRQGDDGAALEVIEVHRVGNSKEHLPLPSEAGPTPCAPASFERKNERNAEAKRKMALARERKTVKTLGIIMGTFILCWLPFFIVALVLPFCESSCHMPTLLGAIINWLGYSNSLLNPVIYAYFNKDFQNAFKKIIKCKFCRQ
The settings on record: 4 doses in duplicate (3, 30, 300, 3000 nM). How it is done:
(§1) The functional receptor assay, Receptor Selection and Amplification Technology (R-SAT), was used (with minor modifications from that previously described U.S. Pat. No. 5,707,798) to screen compounds for efficacy at the 5-HT2A receptor. Briefly, NIH3T3 cells were grown in 96 well tissue culture plates to 70-80% confluence. Cells were transfected for 12-16 hours with plasmid DNAs using superfect (Qiagen Inc.) as per manufacture's protocols. R-SAT's were generally performed with 50 ng/well of receptor and 20 ng/well of Beta-galactosidase plasmid DNA. All receptor and G-protein constructs used were in the pSI mammalian expression vector (Promega Inc) as described in U.S. Pat. No. 5,707,798. The 5HT2A receptor gene was amplified by nested PCR from brain cDNA using the oligodeoxynucleotides based on the published sequence (see Saltzman et. al. Biochem. Biophys. Res. Comm. 181:1469-78 (1991)). Large-scale transfections, cells were transfected for 12-16 hours, then trypsinized and frozen in DMSO. Frozen cells were later thawed, plated at 10,000-40,000 cells per well of a 96 well plate that contained drug. With both methods, cells were then grown in a humidified atmosphere with 5% ambient CO2 for five days. Media was then removed from the plates and marker gene activity was measured by the addition of the beta-galactosidase substrate ONPG (in PBS with 5% NP-40). The resulting colorimetric reaction was measured in a spectrophotometric plate reader (Titertek Inc.) at […]. All data were analyzed using the computer program XLFit (IDBSm). Efficacy is the percent maximal repression compared to repression by a control compound (ritanserin in the case of 5HT2A). pIC50 is the negative of the log(IC50), where IC50 is the calculated concentration in Molar that produces 50% maximal repression.
(§2) R-SAT assays (as described in Example 42) were carried out with cells transfected with receptors (listed below) to determine the receptor selectivity profile for compound 26HCH16D. 5HT2A inverse agonist data (IC50 nM; % efficacy) were derived from detailed dose response curves (7 points in triplicate).

In a further assay the target is T2, alpha1c/A (Homo sapiens, UniProt P35348).
T2 construct: expressed in transfected cells; host or cells: NIH3T3, pSI vector
T2 sequence (P35348 1-466): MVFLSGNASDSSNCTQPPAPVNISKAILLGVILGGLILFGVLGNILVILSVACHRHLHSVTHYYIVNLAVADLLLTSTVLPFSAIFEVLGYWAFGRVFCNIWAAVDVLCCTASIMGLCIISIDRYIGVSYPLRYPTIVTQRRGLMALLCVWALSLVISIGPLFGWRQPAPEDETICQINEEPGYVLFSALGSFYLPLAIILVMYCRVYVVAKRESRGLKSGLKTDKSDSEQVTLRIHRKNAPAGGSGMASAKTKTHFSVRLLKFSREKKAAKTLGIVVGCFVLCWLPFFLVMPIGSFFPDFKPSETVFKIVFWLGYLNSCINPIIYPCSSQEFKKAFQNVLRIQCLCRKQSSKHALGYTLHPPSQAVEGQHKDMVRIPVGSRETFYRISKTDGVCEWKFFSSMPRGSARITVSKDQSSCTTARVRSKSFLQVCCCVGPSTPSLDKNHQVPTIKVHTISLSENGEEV
The protocol:
as §1, §2

A further assay concerns the target T3, alpha1a/D (Rattus norvegicus, UniProt P23944).
T3 construct: expressed in transfected cells; host or cells: NIH3T3, pSI vector
T3 sequence (P23944 1-561): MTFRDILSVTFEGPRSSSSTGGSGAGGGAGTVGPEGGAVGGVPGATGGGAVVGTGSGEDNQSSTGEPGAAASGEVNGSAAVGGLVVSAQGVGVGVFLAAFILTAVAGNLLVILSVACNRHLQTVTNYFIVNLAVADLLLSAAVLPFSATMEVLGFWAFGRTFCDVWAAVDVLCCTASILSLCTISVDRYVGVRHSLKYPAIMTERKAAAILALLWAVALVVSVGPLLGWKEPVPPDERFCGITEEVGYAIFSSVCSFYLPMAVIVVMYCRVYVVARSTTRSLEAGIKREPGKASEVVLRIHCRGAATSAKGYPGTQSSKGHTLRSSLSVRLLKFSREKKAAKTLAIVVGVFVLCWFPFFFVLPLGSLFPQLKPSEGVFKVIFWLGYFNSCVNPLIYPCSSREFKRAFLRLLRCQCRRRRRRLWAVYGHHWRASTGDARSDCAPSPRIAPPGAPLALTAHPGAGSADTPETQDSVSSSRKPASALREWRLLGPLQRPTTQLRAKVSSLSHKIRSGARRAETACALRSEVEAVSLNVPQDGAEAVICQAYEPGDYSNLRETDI
The conditions noted are these: 4 doses in duplicate (3, 30, 300, 3000 nM). The protocol:
as §1, §2

For the next assay, the target named is T4, H1 (Homo sapiens, UniProt P35367).
T4 construct: expressed in transfected cells; host or cells: NIH3T3, pSI vector
The protocol:
as §1, §2

The next assay addresses T5, 5HT2C (Homo sapiens, UniProt P28335).
T5 construct: expressed in transfected cells; host or cells: NIH3T3, pSI vector
T5 sequence (P28335 33-458): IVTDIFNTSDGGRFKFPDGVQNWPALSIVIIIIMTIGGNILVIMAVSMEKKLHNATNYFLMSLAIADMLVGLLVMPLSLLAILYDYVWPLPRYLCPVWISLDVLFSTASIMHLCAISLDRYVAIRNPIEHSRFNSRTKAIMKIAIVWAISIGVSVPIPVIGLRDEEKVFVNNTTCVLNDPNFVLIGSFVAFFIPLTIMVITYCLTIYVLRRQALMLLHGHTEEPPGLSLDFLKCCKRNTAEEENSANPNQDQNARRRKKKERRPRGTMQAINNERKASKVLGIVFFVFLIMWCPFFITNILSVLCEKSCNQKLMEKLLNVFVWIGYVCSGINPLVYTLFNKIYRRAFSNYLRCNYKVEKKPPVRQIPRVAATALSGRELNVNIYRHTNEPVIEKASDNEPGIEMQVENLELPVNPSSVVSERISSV
The settings on record: Inverse Agonist; 4 dose profiling. How it is done: as §1, §2

Setting [1] is: Agonist, 4 doses in duplicate (3, 30, 300, 3000 nM).

Where a name gives a salt, the structure may show the parent alone.

T4 sequence (P35367 whole entry): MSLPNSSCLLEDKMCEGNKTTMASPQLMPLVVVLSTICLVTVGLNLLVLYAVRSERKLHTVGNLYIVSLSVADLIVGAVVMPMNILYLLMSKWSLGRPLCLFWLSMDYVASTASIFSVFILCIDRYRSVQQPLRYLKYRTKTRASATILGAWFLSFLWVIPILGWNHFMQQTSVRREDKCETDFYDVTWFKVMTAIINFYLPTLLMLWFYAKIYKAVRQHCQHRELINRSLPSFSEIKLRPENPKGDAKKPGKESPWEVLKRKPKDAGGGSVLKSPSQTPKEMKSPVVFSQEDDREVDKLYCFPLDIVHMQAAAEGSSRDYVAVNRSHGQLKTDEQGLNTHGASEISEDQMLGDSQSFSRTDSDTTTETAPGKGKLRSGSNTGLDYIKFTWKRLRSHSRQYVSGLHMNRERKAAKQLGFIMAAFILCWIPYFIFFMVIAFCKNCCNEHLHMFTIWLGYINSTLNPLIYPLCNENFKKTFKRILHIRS

For `Cc1ccc(CN(C(=O)NCc2ccccc2)C2CCN(Cc3ccccc3)CC2)cc1` [Compound 26HCH16D, N-((4-Methylphenyl)methyl)-N-(1-(phenylmethyl)piperidin-4-yl)-N′-phenylmethylcarbamide hydrochloride], the Efficacy entry was “nr (nr=activity less than 30% at all doses tested (3, 30, 300, 3000 nM), therefore EC50/IC50 greater than 3000 nM))” on 5HT1A (Agonist); “nr (nr=activity less than 30% at all doses tested (3, 30, 300, 3000 nM), therefore EC50/IC50 greater than 3000 nM))” on 5HT1A (Antagonist); “nr (nr=activity less than 30% at all doses tested (3, 30, 300, 3000 nM), therefore EC50/IC50 greater than 3000 nM))” on alpha1c/A (setting [1]); “nr (nr=activity less than 30% at all doses tested (3, 30, 300, 3000 nM), therefore EC50/IC50 greater than 3000 nM))” at alpha1a/D (Agonist); “nr (nr=activity less than 30% at all doses tested (3, 30, 300, 3000 nM), therefore EC50/IC50 greater than 3000 nM))” at alpha1a/D (Antagonist); “nr (nr=activity less than 30% at all doses tested (3, 30, 300, 3000 nM), therefore EC50/IC50 greater than 3000 nM))” on H1 (setting [1]). Further, the “initial concentration at which at least 30% efficacy observed” value at alpha1c/A (Antagonist, 4 dose profiling) is 3000 nM; at H1 (Antagonist, 4 dose profiling), 3000 nM; at 5HT2C, 3000 nM.
